{"source": "patent US20250195547A1", "about": "“COMPOSITIONS AND METHODS OF TREATMENT FOR CONGENITAL DIARRHEAL DISORDER” (VANDERBILT UNIVERSITY, priority 2022, published 2025)", "key": {"Myo5bΔINT mice": {"test_system": "Myo5bΔINT mice", "experiment": "Daily LPAR agonist treatment of tamoxifen-induced Myo5bΔINT mice (MVID model), intestinal histology and immunostaining", "assay_type": "in vivo, mouse", "conditions": "for Hmgcs2 protein expression in jejunal epithelial cells / apical localization of transporters NHE3 and SGLT1: immunostaining; for Hmgcs2 protein expression in jejunal epithelial cells: once daily ip for 4 days; for tuft cell differentiation (tuft cell population) in Myo5bΔINT intestine: once a day for 4 days, LPA 3 mg/kg, Compound-1 1 mg/kg, UCM-05194 10 mg/kg, GRI977143 3 mg/kg; for apical localization of transporters NHE3 and SGLT1: small intestine, daily treatment", "method": "All animal studies were performed with approval from the Institutional Animal Care and Use Committee of Vanderbilt University Medical Center (M2000104). At the 8-10 week of age, Myo5bΔINT mice and littermate controls (VilCre^ERT2; Myo5b^+/flox and Myo5b^flox/flox) received a single dose of tamoxifen (100 mg/kg) by intraperitoneal (IP) injection (day 0) (Weis et al.). […] Compound-1 was dissolved in PBS, and UCM-05194 was dissolved in Captisol solution. Body weight changes and diarrhea symptoms were investigated daily. On day 4, mice were euthanized and the duodenum (0-8 cm from the pyloric ring), jejunum (8 cm following the duodenum), ileum (distal 8 cm from the ileocecal junction), and colon were collected for pathological assessment as previously reported (Kaji et al.).\nImmunofluorescence staining and imaging were performed as previously reported (Kaji, JCI Insight). Four-μm-thin sections were deparaffinized and rehydrated before performing antigen retrieval using 10 mM sodium citrate buffer, contained 0.05% Tween 20 (pH 6), in a pressure cooker for 15 minutes. After cooling down on ice, slides were rinsed in PBS and blocked with protein block serum-free (Dako) for 1 hour at r/t or overnight at 4° C. The primary antibodies against NHE3 (1:200), SGLT1 (0.5 μg/ml) (Kaji et al., 2020), DCLK1 (AF647-conjugated, 1:2000), KRT19 (1:250), CD3, HMGCS2 (1:50), or Actg1 (1:100) were diluted in Dako diluent in background reducing compound (S3022) and incubated on sections overnight at 4° C. After rinsing in 0.1 M PBS, the slides were incubated with the corresponding secondary antibodies conjugated with fluorescence (Jackson Laboratory) for 1 hour. Slides were rinsed in 0.1 M PBS and counterstained with Hoechst 33342 (4 mM, Thermo Fisher Scientific, Waltham, MA) in PBS. The stained slides were cover-slipped with ProLong Gold Antifade Reagent (P36934, Thermo Fisher). Whole slide images were scanned by a Versa imager 200 with a 20× objective (Leica Biosystems, Buffalo Grove, IL) in the Vanderbilt Digital Histology Shared Resource (DHSR). Some immunofluorescence images were taken by using a Zeiss Axio Imager M2 with ApoTome (Carl Zeiss Microscopy, LLC, White Plains NY).\nThe DIA code to quantify the tuft cell populations was developed at the DHSR on Python platform as described previously (Kaji 2021)."}, "[1]": {"test_system": "MYO5B(P663L) pig enteroids", "experiment": "Tuft cell differentiation in pig MVID model enteroids", "assay_type": "cell-based", "conditions": "100 nM daily in ODM, 5 days, vs vehicle (PBS)", "method": "Pig enteroids were expanded in Matrigel (Corning) immersed in IntestiCult Organoid Growth Medium (Human, OGM, Stem Cell Technology). Organoid growth was assessed in 96-well plate and continuously imaged whole wells using a JuLi™ Stage (NanoEn Tek Inc., Waltham, MA). Organoid perimeter was measured by using FIJI, and organoid forming rate was calculated as sphere numbers per plated cell numbers 7 days after the passaging. N=7-9 wells from each genotype. In a different set of culture, tuft cells were differentiated in Organoid Differentiation Medium (ODM, Stem Cell Technology) for 5 days, following after 2 days culture in OGM after passaging. MYO5B(P663L) enteroids were incubated with 100 nM Compound-1 or vehicle (PBS) in ODM.\nOrganoids were fixed with 10% NBF for 30 min in Matrigel domes, rinsed with cold PBS containing 0.1% FBS and centrifuged to remove Matrigel. Fixed organoids were blocked with 5% normal donkey serum in PBS containing 0.3% Triton X-100 for 2 hours and incubated with the pGirdin (1:100) or POU2F3 (1:200) antibody diluted with the blocking solution for 2 days at 4° C. After rinsing in PBS with Triton X-100, donkey anti-rabbit Cy3 antibody (2.5 μg/ml), Alexa Fluor 488 phalloidin (1:400, A12379, Thermo Fisher), and Hoechst 33342 (2 mM) were applied for 2 hr. […]"}, "Myo5bΔINT enteroids": {"test_system": "Myo5bΔINT enteroids", "experiment": "Bulk transcriptional analysis (RNA-seq) in MYO5B deficient mouse enteroids", "assay_type": "cell-based", "conditions": "100 nM", "method": "Enteroids were generated from jejunal crypts of adult VilCre^ERT2; Myo5b^flox/flox and VilCre^ERT2; Myo5b^flox/G519R mice (Burman & Momoh CMGH) without tamoxifen treatment and passaged twice with mechanical breakdown. One day after the second passage, 1 μM 4-OH-tamoxifen (SML1666, Sigma) was added into the IntestiCult Organoid Growth Medium (Mouse, Stem Cell Technology) and incubated for 24 hours to induce Cre recombinase. After the incubation with 4-OH-tamoxifen (induced KO or G519R) or the vehicle, 100% ethanol (Control), the medium was replaced with the modified Minigut medium (Mahe et al., 2013) containing 5% Noggin conditioned medium and 5% R-spondin conditioned medium (Vanderbilt Organoid Core) to withdraw Wnt and EGF for enhancing cell differentiation (Kaji JCI Insight). Some iKO enteroids were incubated with 100 nM Compound-1 for 2 days in differentiation conditions.\nFollowing differentiation, enteroids were placed in Organoid Harvesting Solution (3700-100-01; Cultrex) for 1 hr at 4° C. Enteroids were washed with PBS and centrifuged. Enteroid pellets were immersed in TRIzol reagent (15596026; Invitrogen) supplemented with glycogen (G1767; Sigma Aldrich) and stored at −20° C. Total RNA was extracted from enteroids following the manufacturer's instructions. RNA-sequencing with 4 samples per group and differential expressing gene analysis were performed in Novogene."}, "[2]": {"experiment": "Plasma level after bolus intraperitoneal injection in wild type adult mice", "assay_type": "in vivo, mouse"}, "Solubility / stability": {"experiment": "Solubility / stability", "assay_type": "physicochemical", "conditions": "as a sodium salt"}, "human LPAR5": {"biological_target": "human LPAR5 (Homo sapiens, UniProt Q9H1C0)", "sequence (Q9H1C0 whole entry)": "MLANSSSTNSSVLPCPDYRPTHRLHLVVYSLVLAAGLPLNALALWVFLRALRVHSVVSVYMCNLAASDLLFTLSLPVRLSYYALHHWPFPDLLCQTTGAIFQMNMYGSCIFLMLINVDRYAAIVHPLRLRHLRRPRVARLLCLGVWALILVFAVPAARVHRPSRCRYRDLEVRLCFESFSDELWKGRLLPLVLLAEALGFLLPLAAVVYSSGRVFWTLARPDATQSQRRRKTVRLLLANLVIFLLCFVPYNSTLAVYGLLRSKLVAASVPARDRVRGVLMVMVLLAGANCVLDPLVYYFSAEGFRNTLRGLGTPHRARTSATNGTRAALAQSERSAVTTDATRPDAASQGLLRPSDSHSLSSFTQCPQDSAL", "conditions": "cited from earlier work"}, "human LPAR3": {"biological_target": "T1, human LPAR3 (Homo sapiens, UniProt Q9UBY5)", "T1 sequence (Q9UBY5 1-353)": "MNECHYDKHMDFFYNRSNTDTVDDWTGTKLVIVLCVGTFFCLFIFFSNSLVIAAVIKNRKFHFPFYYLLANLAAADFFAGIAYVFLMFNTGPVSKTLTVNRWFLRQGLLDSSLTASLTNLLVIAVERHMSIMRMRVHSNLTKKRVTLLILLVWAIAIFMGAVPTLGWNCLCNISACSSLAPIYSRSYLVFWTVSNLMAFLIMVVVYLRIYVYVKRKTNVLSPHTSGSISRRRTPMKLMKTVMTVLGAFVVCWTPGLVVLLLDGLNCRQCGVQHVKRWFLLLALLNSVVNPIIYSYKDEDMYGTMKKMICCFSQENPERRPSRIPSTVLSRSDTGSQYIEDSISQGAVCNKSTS", "conditions": "cited from earlier work"}, "[3]": {"conditions": "natural LPA; background statement; cited from earlier work"}}, "note": "Entries after “also recorded” stand apart in the source; their conditions may differ."}
{"smiles": "CCCCCCCCCCCCCCCCOC(CCP([O-])(O)=S)COC.[Na+]", "note": "(stereo not shown) [Compound-1]", "values": [{"measurement": "Intestinal villus/crypt ratio", "setting": "Myo5bΔINT mice; Compound-1 1 mg/kg daily, intraperitoneal, 4 days, vs vehicle", "value": "significantly improved"}, {"measurement": "increase of villus/crypt ratio in the small intestine", "setting": "Myo5bΔINT mice; daily Compound-1 treatment", "value": 150, "unit": "%"}, {"measurement": "effect of subcutaneous tablet insertion (continuous delivery)", "setting": "Myo5bΔINT mice; high dose 2 mg/mouse per tablet", "value": "no consistent effect"}, {"measurement": "Hmgcs2 protein expression in jejunal epithelial cells", "setting": "Myo5bΔINT mice", "value": "remarkably upregulated"}, {"measurement": "effect of subcutaneous tablet insertion (continuous delivery)", "setting": "Myo5bΔINT mice; low dose 0.2 mg/mouse per tablet", "value": "no consistent effect"}, {"measurement": "tuft cell differentiation (tuft cell population) in Myo5bΔINT intestine", "setting": "Myo5bΔINT mice", "value": "reversed; also recorded: significantly increased"}, {"measurement": "apical localization of transporters NHE3 and SGLT1", "setting": "Myo5bΔINT mice", "value": "partially recovered; also recorded: partially reversed to normal"}, {"measurement": "body weight loss", "setting": "Myo5bΔINT mice; within 4 days, similar to vehicle-treated group", "value": "approximately 14%"}, {"measurement": "tuft cell numbers in MYO5B(P663L) enteroids", "setting": "[1]", "value": "significantly increased"}, {"measurement": "Nox1 expression decreased by MYO5B loss", "setting": "Myo5bΔINT enteroids; 2 days", "value": "reversed"}, {"measurement": "inflammation- and infection-related genes (Nlrp1b, Ldhb, Hspg2, Trim30) increased by MYO5B loss", "setting": "Myo5bΔINT enteroids; 2 days during differentiation", "value": "significantly reversed"}, {"measurement": "Hmgcs2 expression in enteroids with and without Compound-1", "setting": "Myo5bΔINT enteroids; 2 days, control vs MYO5B deficient enteroids", "value": "comparable"}, {"measurement": "Compound in plasma", "setting": "[2]; 1 hour after bolus ip injection 10 mg/kg", "value": "detected"}, {"measurement": "plasma concentration (disappeared)", "setting": "[2]; within 6 hours after bolus ip injection 10 mg/kg", "value": "< 10", "unit": "ng/mL"}, {"measurement": "solubility in water", "setting": "Solubility / stability", "value": "highly soluble"}, {"measurement": "EC50", "setting": "human LPAR5", "value": 0.26, "unit": "nM"}, {"measurement": "effect on human LPAR3", "setting": "human LPAR3", "value": "agonistic effect"}]}
{"smiles": "CCCCCCCC/C=C\\CCCCCCCC(=O)OCC(O)COP(=O)(O)O", "note": "(stereo not shown) [LPA, 18:1 1-oleoyl-Lyso PA, reference compound]", "values": [{"measurement": "fatty acid oxidation or lipogenesis pathways (transcription)", "setting": "Myo5bΔINT mice; RNA-seq of jejunal epithelial cells, in vivo LPA (18:1)", "value": "did not reverse"}, {"measurement": "transcription of Hmgcs2 in jejunal epithelial cells", "setting": "Myo5bΔINT mice; RNA-seq, vs vehicle-treated Myo5bΔINT or healthy littermate mice", "value": "significantly upregulated"}, {"measurement": "Hmgcs2 protein expression in jejunal epithelial cells", "setting": "Myo5bΔINT mice", "value": "further increased"}, {"measurement": "tuft cell differentiation (tuft cell population) in Myo5bΔINT intestine", "setting": "Myo5bΔINT mice", "value": "reversed"}, {"measurement": "apical localization of transporters NHE3 and SGLT1", "setting": "Myo5bΔINT mice", "value": "similarly improved"}, {"measurement": "solubility and stability", "setting": "[3]", "value": "poor"}]}
{"smiles": "O=C(CCCc1ccccc1)O[C@H](CBr)COP(=O)(O)O", "note": "[UCM-05194, reference compound]", "values": [{"measurement": "intestinal histology", "setting": "Myo5bΔINT mice; once a day for 4 days after tamoxifen", "value": "did not significantly alter"}, {"measurement": "tuft cell differentiation (tuft cell population) in Myo5bΔINT intestine", "setting": "Myo5bΔINT mice", "value": "no significant effect"}]}
